Data reported in EP0049683A2, “Imidazo-rifamycines, process for their preparation, pharmaceutical preparations containing them and their use” (CIBA-GEIGY AG, priority 1980, dated 1982).
≈ marks a conversion by molar mass, not a printed value.

Experiments:
Assay type in all cases: cell-based
Escherichia coli 2018 = assay: Agar dilution MIC in DST agar (Ericsson and Sherris); conditions: for MIC: Escherichia coli, 2018, in vitro, read-out: MIC Esch. 2018; for MIC Esch. 2018: in vitro
Outline: (§1)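 Growth inhibition on compound-containing agar determined the minimum inhibitory concentration, reported as µg/ml.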

Escherichia coli 205 = assay: as above; conditions: for MIC: Escherichia coli, 205, in vitro, read-out: MIC Esch. 205; for MIC Esch. 205: in vitro
Outline: as §1

Proteus morganii 1518 = assay: as above; conditions: for MIC: Morganella morganii, 1518, in vitro, read-out: MIC Prot. 1518; for MIC Prot. 1518: in vitro
Outline: as §1

Proteus morganii 2359 = assay: as above; conditions: for MIC: Morganella morganii, 2359, in vitro, read-out: MIC Prot. 2359; for MIC Prot. 2359: in vitro
Outline: as §1

[1] = test system: Pseudomonas aeruginosa K 799/61; assay: as above; conditions: for MIC: Pseudomonas aeruginosa, K799/61, read-out: MIC Pseu. 799; for MIC Pseu. 799: in vitro, agar dilution, DST agar
Outline: as §1

[2] = test system: Salmonella Typhimurium 277; assay: as above; conditions: in vitro; for MIC: Salmonella enterica, TYPHIMURIUM, read-out: MIC Salm. 277
Outline: as §1

[3] = test system: Staphylococcus aureus 10B; assay: as above; conditions: in vitro; for MIC: Staphylococcus aureus, 10B, read-out: MIC Staph. 10B
Outline: as §1

[4] = test system: Staphylococcus aureus 2999; assay: as above; conditions: for MIC: Staphylococcus aureus, 2999, in vitro, read-out: MIC Staph. 2999; for MIC Staph. 2999: in vitro
Outline: as §1

[5] = test system: Mycobacterium tuberculosis; assay: as above; conditions: in vitro; for MIC: Mycobacterium tuberculosis, read-out: MIC Myc. tub.
Staphylococcus aureus = assay: In vitro antibacterial activity against gram-positive cocci; conditions: at (at or below) the lowest limit of the tested concentration range, 0,005 y/ml
From the text: (§2) Die neuen erfindungsgemässen Verbindungen der Formel I zeichnen sich vor allem durch ihre wertvollen pharmakologischen Eigenschaften aus: so besitzen sie gemäss den Resultaten in vitro antibiotische, insbesondere antibakterielle Eigenschaften, wie z.B. einerseits gegen grammpositive Kokken, wie Staphylococcus aureus, (im getesteten Konzentrationsbereich 0,005 bis 128 y/ml),andererseits gegen grammnegative Stäbchenbakterien, wie Enterobacteriaceae, z.B. Escherichia coli, Pseudomonas aeruginosa und Proteus morganii (im getesteten Konzentrationsbereich von 1 bis 64 y/ml), sowie gegen Mycobacterium tuberculosis (im getesteten Konzentrationsbereich von 0,48 bis 1,9 y/ml). […] (Für die Testresultate siehe auch Tabelle -1.)
(§3) Auch die neuen erfindungsgemässen Verbindungen der Formeln V und VI zeichnen sich durch analoge wertvolle pharmakologische Eigenschaften aus, d.h. sie besitzen gemäss den Resultaten in vitro antibiotische, insbesondere antibakterielle Eigenschaften, die sich bezüglich des Anwendungsbereichs sowie der getesteten effektiven Konzentrationen den Verbindungen der Formel I praktisch gleichen. […] (Für die Testresultate siehe auch Tabelle 2.)

[6] = test system: Enterobacteriaceae, z.B. Escherichia coli, Pseudomonas aeruginosa und Proteus morganii; assay: In vitro antibacterial activity against gram-negative rods; conditions: within the stated concentration range, 1 bis 64 y/ml
From the text: as §2, §3

| Compound | MIC (Escherichia coli 2018) [µg/mL] | MIC (Escherichia coli 205) [µg/mL] | MIC (Proteus morganii 1518) [µg/mL] | MIC (Proteus morganii 2359) [µg/mL] | MIC [1] [µg/mL] | MIC [2] [µg/mL] | MIC [3] [µg/mL] | MIC [4] [µg/mL] | MIC [5] [µg/mL] | Hemmwirkung auf Staphylococcus aureus (Staphylococcus aureus) | Hemmung der Enterobacterien [6] | MIC Esch. 2018 (Escherichia coli 2018) [µg/mL] | MIC Esch. 205 (Escherichia coli 205) [µg/mL] | MIC Prot. 1518 (Proteus morganii 1518) [µg/mL] | MIC Prot. 2359 (Proteus morganii 2359) [µg/mL] | MIC Pseu. 799 [1] [µg/mL] | MIC Salm. 277 [2] [µg/mL] | MIC Staph. 10B [3] [µg/mL] | MIC Staph. 2999 [4] [µg/mL] | MIC Myc. tub. [5] [µg/mL] |
| --- | --- | --- | --- | --- | --- | --- | --- | --- | --- | --- | --- | --- | --- | --- | --- | --- | --- | --- | --- | --- |
| COC1C=COC2(C)Oc3c(C)c(O)c4c(O)c(c5nc(N6CCN(CC7CCCCC7)CC6)[nH]c5c4c3C2=O)NC(=O)C(C)=CC=CC(C)C(O)C(C)C(O)C(C)C(OC(C)=O)C1C (centres unmarked) [Verbindung 5, 4-(4-Cyclohexylmethyl-piperazinyl)-imidazolo[4,5-c]rifamycin SV] | 4 (≈ 4.43 µM) | 4 (≈ 4.43 µM) | 8 (≈ 8.87 µM) | 16 (≈ 17.7 µM) | 16 (≈ 17.7 µM) | 8 (≈ 8.87 µM) | 0.005 (≈ 0.00554 µM) | 0.005 (≈ 0.00554 µM) | 1.9 (≈ 2.11 µM) |  |  |  |  |  |  |  |  |  |  |  |
| CCN(CC)CCN(CC)c1nc2c([nH]1)c1c(O)c3c(O)c(C)c4c(c32)C(=O)[C@@](C)(O/C=C/[C@H](OC)[C@@H](C)[C@@H](OC(C)=O)[C@H](C)[C@H](O)[C@H](C)[C@@H](O)[C@@H](C)/C=C/C=C(/C)C(=O)N1)O4 [Verbindung 18, 4-[N-Ethyl-N-(2-diethylaminoethyl)-amino]-imidazolo-[4,5-c]rifamycin SV] | 4 (≈ 4.63 µM) | 2 (≈ 2.31 µM) | 4 (≈ 4.63 µM) | 2 (≈ 2.31 µM) | 8 (≈ 9.26 µM) | 16 (≈ 18.5 µM) | 0.005 (≈ 0.00579 µM) | 0.005 (≈ 0.00579 µM) | 0.48 (≈ 0.556 µM) |  |  |  |  |  |  |  |  |  |  |  |
| 3-(4-Phenylpiperazinyl)methylenamino-Rifamycin S [Verbindung 91] |  |  |  |  |  |  |  |  |  | deutliche Hemmwirkung | wirksam hemmen |  |  |  |  |  |  |  |  |  |
| 3-Indolinylmethylenamino-Rifamycin S [Verbindung 82] |  |  |  |  |  |  |  |  |  | deutliche Hemmwirkung | wirksam hemmen |  |  |  |  |  |  |  |  |  |
| 4-[8-Aza-1,4-dioxaspiro-(4,5)-8-decyl]-imidazolo[4,5-c]-rifamycin SV [Verbindung 25] |  |  |  |  |  |  |  |  |  |  |  | 16 | 8 | 8 | 8 | 16 | 16 | 0.005 | 0.005 | 0.97 |
| 4-(1-Perhydroazocinyl)-imidazolo[4,5-c]rifamycin SV [Verbindung 28] |  |  |  |  |  |  |  |  |  |  |  | 4 | 4 | 2 | 2 | 8 | 16 | 0.005 | 0.005 | 0.97 |
| COC1C=COC2(C)Oc3c(C)c(O)c4c(O)c(c5nc(N6CCN(C)CC6)[nH]c5c4c3C2=O)NC(=O)C(C)=CC=CC(C)C(O)C(C)C(O)C(C)C(OC(C)=O)C1C (centres unmarked) [Verbindung 3, 4-(4-Methylpiperazinyl)-imidazolo[4,5-c]rifamycin SV] | 16 (≈ 19.5 µM) | 16 (≈ 19.5 µM) | 16 (≈ 19.5 µM) | 16 (≈ 19.5 µM) | 4 (≈ 4.88 µM) | 32 (≈ 39 µM) | 0.01 (≈ 0.0122 µM) | 0.01 (≈ 0.0122 µM) | 0.97 (≈ 1.18 µM) | deutliche Hemmwirkung | wirksam hemmen |  |  |  |  |  |  |  |  |  |
| CO[C@H]1/C=C/O[C@@]2(C)Oc3c(C)c(O)c4c(O)c(c5nc(N6CCN(Cc7ccccc7)CC6)[nH]c5c4c3C2=O)NC(=O)/C(C)=C\C=C\[C@H](C)[C@H](O)[C@@H](C)[C@@H](O)[C@@H](C)[C@H](OC(C)=O)[C@@H]1C [Verbindung 57, 4-(4-Benzylpiperazinyl)-imidazolo[4,5-c]rifamycin SV] | 4 (≈ 4.46 µM) | 8 (≈ 8.93 µM) | 4 (≈ 4.46 µM) | 4 (≈ 4.46 µM) | 16 (≈ 17.9 µM) | 16 (≈ 17.9 µM) | 0.005 (≈ 0.00558 µM) | 0.005 (≈ 0.00558 µM) | 0.97 (≈ 1.08 µM) |  |  |  |  |  |  |  |  |  |  |  |
| C#CCN1CCN(c2nc3c([nH]2)c2c(O)c4c(O)c(C)c5c(c43)C(=O)[C@@](C)(O/C=C/[C@H](OC)[C@@H](C)[C@@H](OC(C)=O)[C@H](C)[C@H](O)[C@H](C)[C@@H](O)[C@@H](C)/C=C/C=C(/C)C(=O)N2)O5)CC1 [Verbindung 49, 4-(4-Propargylpiperazinyl)-imidazolo[4,5-c]rifamycin SV] | 32 (≈ 37.9 µM) | 8 (≈ 9.48 µM) | 8 (≈ 9.48 µM) | 8 (≈ 9.48 µM) | 8 (≈ 9.48 µM) | 32 (≈ 37.9 µM) | 0.001 (≈ 0.00118 µM) | 0.001 (≈ 0.00118 µM) |  |  |  |  |  |  |  |  |  |  |  |  |
